# pIC50: −log10 of the molar value. Structures can show the parent of a compound that is named as a salt.
# Experiments:
# [1] = test system: NCI-H358 non-small cell lung cancer cell line of a mutation RONΔ155 type; assay: MTS assay, cell growth inhibitory ability, NCI-H358; assay type: cell-based; settings: Homo sapiens; NCI-H358, RON mutation Δ155, 72 hours
# Procedure: (§1) In order to compare and confirm the cell growth inhibitory ability of Examples 1 (WM-S1-030) to 5, positive control 1 (BMS-777607) and positive control 2 (AMG-510) in four non-small cell lung cancer cell lines of a mutation RONΔ155 type (Calu-6, A549, NCI-H358, NCI-H1944), MTS assay was carried out.
# (§2) For MTS assay, 1,000 cells of each non-small cell lung cancer cell line per well were seeded in a 96-well-plate, and 24 hours later, treated with the compounds of Examples 1 to 5, positive control 1 and positive control 2 at various concentrations ([…]) in 100 μL of 10% FBS-RPMI medium (Welgene) per each well. Thereafter, the cells were cultured for 72 hours, and then 20 μL of MTS solution (Promega) was added and cultured for 2 hours, and then absorbance was measured at 490 nm. The cytotoxicity was analyzed by deriving the IC50 for the compounds of Examples 1 to 5, positive control 1 and positive control 2 using GraphPad Prism™ 5.
# [2] = test system: Calu-6 non-small cell lung cancer cell line of a mutation RONΔ155 type; assay: MTS assay, cell growth inhibitory ability, Calu-6; assay type: cell-based; settings: Homo sapiens; Calu-6, RON mutation Δ155, 72 hours
# Procedure: as §1, §2
# [3] = test system: NCI-H1944 non-small cell lung cancer cell line of a mutation RONΔ155 type; assay: MTS assay, cell growth inhibitory ability, NCI-H1944; assay type: cell-based; settings: Homo sapiens; NCI-H1944, RON mutation Δ155, 72 hours
# Procedure: as §1, §2
# [4] = test system: A549 non-small cell lung cancer cell line of a mutation RONΔ155 type; assay: MTS assay, cell growth inhibitory ability, A549; assay type: cell-based; settings: Homo sapiens; A549, RON mutation Δ155, 72 hours
# Procedure: as §1, §2
# [5] = test system: A549 (mRONΔ155) non-small cell lung cancer cell line transplanted mouse model; assay: Tumor growth inhibition in A549 transplanted animal model; assay type: in vivo; settings: A549 xenograft, 50 mg/kg, orally once a day for 3 weeks
# Procedure: (§3) It was confirmed whether tumor growth was inhibited by administering Example 1 (WM-S1-030) at a dose of 50 mpk to a mouse model transplanted with A549, which is a non-small cell lung cancer cell line of a mutation RONΔ155 type. Specifically, 5-week-old female BALB/c-nude mice were purchased and acclimatized for 1 week. Thereafter, A549 (5×10^6 cells/mouse), a non-small cell lung cancer cell line of a mutation RONΔ155 type, was diluted in PBS (phosphate buffered saline), and 100 μL was injected subcutaneously into the right dorsal side of the mouse. When the size of the tumor reached about 100 mm^3, the negative control (excipient) and Example 1 were orally administered. The drug was administered once a day for 3 weeks, and the tumor size and body weight were measured twice a week. After the drug administration was completed, the mice were euthanized, the tumor was extracted, and the weight was measured.
# [6] = test system: NCI-H358 (mRONΔ155) non-small cell lung cancer cell line transplanted mouse model; assay: Tumor growth inhibition in NCI-H358 transplanted animal model; assay type: in vivo; settings: NCI-H358 xenograft, orally once a day for 38 days
# Procedure: as §3, with “of 3 mpk, 10 mpk and 30” for “of 50”, “with NCI-H358,” for “with A549,”, “Thereafter, NCI-H358” for “Thereafter, A549”, “PBS” for “PBS (phosphate buffered saline),”, “and Matrigel, and 200” for “and 100”, “for 38 days,” for “for 3 weeks,”
# [7] = test system: pTyr-mRON, cleaved caspase 3, cyclin D1 in NCI-H460 (mRONΔ165) tumor; assay: Protein expression change by immunochemical staining of tumor tissue, NCI-H460 transplanted animal model; assay type: in vivo, mouse; settings: 30 mpk, 50 mpk, FIG. 6
# Procedure: (§4) Example 1 (WM-S1-030) was administered at each concentration (30 mpk, 50 mpk) and positive control 1 was administered at a dose of 50 mpk to a mouse model transplanted with NCI-H460, which is a non-small cell lung cancer cell line of a mutation RONΔ165 type, and then the tumor was extracted, and the expression changes of the proteins were analyzed by immunochemical staining.
# (§5) Specifically, paraffin slides were prepared using tissues isolated from the sacrificed mice. The tissue sections were deparaffinized and rehydrated, immersed in the target recovery buffer 1×(ScyTek Laboratories, Cat #CBB999) and heated for 15 minutes to perform an antigen recovery process. After the reaction, the tissue sections were washed in Tris buffered saline-0.05% Tween 20 (TBS-T)(T&I, BTT-9310) for 5 minutes, and then the reaction was performed with a non-specific antibody response blocking reagent (vector, SP-5035) for 1 hour.
# (§6) The tissue sections were cultured at 4° C. overnight with mRON (Abcam, ab52927, 1:50), pTyr-mRON (Mybioscience, MBS462024, 1:100), cleaved caspase 3 (Asp175)(R&D Systems, MAB835, 1:50), cyclin D1 (cyclin D1 (SP4), #Z2027RS, 1:100) and then washed with TBS-T for 5 minutes, and then endogenous peroxidase activity was blocked using a peroxidase blocking reagent (Cellmarque, 925B-05). Thereafter, the tissue sections were washed with TBS-T for 5 minutes and then incubated with a rabbit secondary antibody (vector, PK-6101) at room temperature for 1 hour. The tissue sections were washed with TBS-T for 5 minutes and then colored with diaminobenzidine (cat #SK-4100). In order to stain the nuclei of the tissues, they were stained with hematoxylin (ScyTek Laboratories, HMM999) for 1 minute, dehydrated, and then encapsulated.
# [8] = test system: pTyr-mRON, cleaved caspase 3, cyclin D1 in NCI-H358 (mRONΔ155) tumor; assay: Protein expression change by immunochemical staining of tumor tissue, NCI-H358 transplanted animal model; assay type: in vivo, mouse; settings: 3 mpk, 10 mpk, 30 mpk, FIG. 4
# Procedure: as §4, with “(3” for “(30”, “10 mpk, 30” for “50”, “mpk)” for “mpk) and positive control 1 was administered at a dose of 50 mpk”, “NCI-H358,” for “NCI-H460,”, “RONΔ155” for “RONΔ165”
# as §5
# as §6, with “MAB835, 1:50), and cyclin D1” for “MAB835, 1:50), cyclin D1”
# [9] = test system: NCI-H460 (mRONΔ165) non-small cell lung cancer cell line transplanted mouse model; assay: Tumor growth inhibition in NCI-H460 transplanted animal model; assay type: in vivo; settings: NCI-H460 xenograft, 50 mg/kg, once a day for 2 weeks
# Procedure: It was confirmed whether tumor growth was inhibited by administering Example 1 (WM-S1-030) at a dose of 50 mpk to a mouse model transplanted with NCI-H460, which is a non-small cell lung cancer cell line of a mutation RONΔ165 type. Specifically, 5-week-old female BALB/c-nude mice were purchased and acclimatized for 1 week. Thereafter, NCI-H460 (2×10^6 cells/mouse), a non-small cell lung cancer cell line of a mutation RONΔ165 type, was diluted in PBS and Matrigel, and 200 μL was injected subcutaneously into the right dorsal side of the mouse. When the size of the tumor reached about 100 mm^3, the negative control (excipient) and Example 1 were orally administered. In this case, positive control 1 (BMS-777607) was administered at a dose of 50 mpk. The drug was administered once a day for 2 weeks, and the tumor size and body weight were measured twice a week. After the drug administration was completed, the mice were euthanized, the tumor was extracted, and the weight was measured.
# [10] = test system: NCI-H358 non-small cell lung cancer cell line of a mutation RONΔ155 type; assay: Cell killing efficacy, trypan blue exclusion assay, NCI-H358; assay type: cell-based; settings: NCI-H358, 1 μM, 48 hours, FIG. 1
# Procedure: (§7) A549 and NCI-H358, which are non-small cell lung cancer cell lines of a mutation RONΔ155 type, were dispensed, and 24 hours later, treated with 1 μM of the compounds of Examples 1 (WM-S1-030) to 5, positive control 1 (BMS-777607) and positive control 2 (AMG-510), respectively, while replacing the medium. After 48 hours, the cells and the cell fluid were harvested (1500 rpm, 4 min), and live cells and dead cells were quantified through trypan blue (15250-061, Gibco) exclusion assay. Statistical analysis was performed using T-test in Excel.
# [11] = test system: A549 non-small cell lung cancer cell line of a mutation RONΔ155 type; assay: Cell killing efficacy, trypan blue exclusion assay, A549; assay type: cell-based; settings: A549, 1 μM, 48 hours, FIG. 1
# Procedure: as §7
Structure (SMILES),pIC50 [1],pIC50 [2],pIC50 [3],pIC50 [4],"Tumor growth inhibition rate (TGI, %) [5] [%]","Tumor growth inhibition rate (TGI, %) ([6]; 3 mg/kg) [%]","Tumor growth inhibition rate (TGI, %) ([6]; 10 mg/kg) [%]","Tumor growth inhibition rate (TGI, %) ([6]; 30 mg/kg) [%]",expression of cleaved caspase 3 [7],"expression of cyclin D1, a PD marker [7]",expression of pTyr-mRON [7],expression of cleaved caspase 3 [8],"expression of cyclin D1, a PD marker [8]",expression of pTyr-mRON [8],"Tumor growth inhibition rate (TGI, %) [9] [%]",Cell killing efficacy (cell death) [10],Cell killing efficacy (cell death) [11]
"CCOc1ccn(-c2ccccc2)c(=O)c1C(=O)Nc1ccc(Oc2ccnc3cc(-c4ccc(CNCCOC)cn4)sc23)c(F)c1 [Example 2, 4-ethoxy-N-(3-fluoro-4-{[2-(5-{[(2-methoxyethyl)amino]methyl}pyridin-2-yl)thieno[3,2-b]pyridin-7-yl]oxy}phenyl)-2-oxo-1-phenyl-1,2-dihydropyridine-3-carboxamide hydrochloride]",5.04,5.14,< 5.00,5.71,–,–,–,–,–,–,–,–,–,–,–,–,–
"CCOc1ccn(-c2ccccc2)c(=O)c1C(=O)Nc1ccc(Oc2ccnc3cc(-c4ccc(CN5CCN(C)CC5)cn4)sc23)c(F)c1 [Example 3, hydrochloride]",5.58,5.81,5.67,6.21,–,–,–,–,–,–,–,–,–,–,–,–,–
"CCOc1ccn(-c2ccc(F)cc2)c(=O)c1C(=O)Nc1ccc(Oc2ccnc3cc(-c4ccc(CN5CCOCC5)cn4)sc23)c(F)c1.Cl [Example 1, 4-ethoxy-N-[3-fluoro-4-({2-[5-(morpholinomethyl)pyridin-2-yl]thieno[3,2-b]pyridin-7-yl}oxy)phenyl]-1-(4-fluorophenyl)-2-oxo-1,2-dihydropyridine-3-carboxamide hydrochloride]",5.90,6.14,5.79,5.69,58.9 ± 3.8,12.3 ± 13.8,64.5 ± 6.2,91.0 ± 2.3,induced,decreased,decreased,induced,decreased,decreased,69.7 ± 5.4,–,–
"C=CC(=O)N1CCN(c2nc(=O)n(-c3c(C)ccnc3C(C)C)c3nc(-c4c(O)cccc4F)c(F)cc23)[C@@H](C)C1 [Positive control 2, reference compound]",7.30,< 5.00,< 5.00,< 5.00,–,–,–,–,–,–,–,–,–,–,–,response to the drug was low,response to the drug was low
"CCOc1ccn(-c2ccc(F)cc2)c(=O)c1C(=O)Nc1ccc(Oc2ccnc(N)c2Cl)c(F)c1 [Positive control 1, N-{4-[(2-amino-3-chloro-4-pyridinyl)oxy]-3-fluorophenyl}-4-ethoxy-1-(4-fluorophenyl)-2-oxo-1,2-dihydro-3-pyridinecarboxamide, reference compound]",< 5.00,< 5.00,< 5.00,< 5.00,–,–,–,–,–,–,–,–,–,–,26.1 ± 1.7,response to the drug was low,response to the drug was low
"COc1cc2c(Oc3ccc(NC(=O)c4c5c(cn(-c6ccc(F)cc6)c4=O)CCO5)cc3F)ccnc2cc1OCCN1CCOCC1 [Example 4, N-(3-fluoro-4-{[6-methoxy-7-(2-morpholinoethoxy)quinolin-4-yl]oxy}phenyl)-5-(4-fluorophenyl)-6-oxo-2,3,5,6-tetrahydrofuro[3,2-c]pyridine-7-carboxamide]",6.05,6.07,6.22,6.43,–,–,–,–,–,–,–,–,–,–,–,–,–
"COc1cc2c(Oc3ccc(NC(=O)c4c5c(cn(-c6ccc(F)cc6)c4=O)CCO5)cc3F)ccnc2cc1OCCCN1CC(C#N)C1 [Example 5, N-[4-({7-[3-(3-cyanoazetidin-1-yl)propoxy]-6-methoxyquinolin-4-yl}oxy)-3-fluorophenyl]-5-(4-fluorophenyl)-6-oxo-2,3,5,6-tetrahydrofuro[3,2-c]pyridine-7-carboxamide]",6.57,5.88,6.51,6.72,–,–,–,–,–,–,–,–,–,–,–,–,–

# Source: US20230241073A1, “PHARMACEUTICAL COMPOSITION FOR PREVENTING OR TREATING NON-SMALL CELL LUNG CANCER ASSOCIATED WITH RON MUTANTATION, AND METHOD USING SAME” (WELLMARKER BIO CO., LTD., priority 2020, published 2023)
